Consider 2 compounds from patent publication US20090023807A1, “Treatment of Cytokine Dysregulation by Using Sn-2 Gamma-Linolenoyl, Gamma-Diho-Molinolenoyl or Arachidonoyl Patty Acid Glycerol Monoesters” (BTG International Limited, priority 2005, published 2009).

Data set [1] has as its system TGF-β1. Description: TGF-β1 production from spleen mononuclear cells of mice fed the monoglyceride by gavage (ELISA). It is filed as in vivo, SJL mice. The settings on record: fed 50 μg; for TGF-β1 production from spleen PBMCs: seven days by gavage. (ELISA stands for enzyme-linked immunosorbent assay.)
Protocol: After seven days animals were killed and the brain, liver and spleen were removed—the liver and brain frozen at −70° C. and mononuclear cells were isolated from spleens by sieving and density centrifugation on Lymphoprep (Sigma Chemical Co) and cultured at 37° C. in 5% CO2 atmosphere in 5 ml culture tubesat a cell density of 1×10^6 cells/ml in RPMI 1640 medium in 5% foetal calf serum (FCS). Cells were cultured with and without 1 μg/ml or 25 μg/ml concanavalin A (Con A) for approximately 20 hours and the supernatants removed and stored at −70° C. until required. Mouse TGF-β1 was measured in supernatants using a commercially available ELISA (Promega, Madison Wis.).
A short description of data set [2]: Storage stability and rearrangement of the monoglyceride. Type of data set: physicochemical. The source says: This exemplifies its potential for inclusion in air excluding formats such as capsules or e.g. collapsible bag containers which allow egress of oil without entry of air. A high purity process for its synthesis has also been published in Yang et al, Journal of the Chinese Institute of Chemical Engineers, 34, 617-623 (2003). These processes lend themselves to synthesis of n-3 and n-6 sn-2 monoglycerides by replacing the arachdonoyl or γ-linolenoyl source with the desired acyl group containing molecule.
Boric acid (2.81) g, 0.045 mol, 4 equivalents) was added to a freshly prepared solution of 1,3-O-benzylidene glycerol 2-octa-6Z,9Z,12Z-trienoate (5.0 g, 0.011 mol, 1 equivalent) in trimethyl borate (28 ml, 26.0 g, 0.25 mol, 22 equivalents) under N2. The mixture was stirred and heated in a sealed Teflon bomb at 90° C. for 15 minutes. The resulting cool solution was concentrated in vacuo and the residue heated at 90° C. under vacuum for 5 minutes. […] This process was repeated on the same scale twice more and the combined residues were dissolved in ether (150 ml) and washed with water (2×50 ml). The ether extract (not dried as MgSO4 promotes rearrangement) was concentrated in vacuo, ethanol added to the residue and the solution re-evaporated with ethanol (2×) to remove water. The residual tan oil (15.0 g) was purified by column chromatography on solica gel-boric acid (10:1) (10 g). Elution with DCM and then DCM-methanol (9:1) gave the product as a yellow oil (11.7 g, 73%) HPLC purity 93.4%. This material was stored in a freezer at −20° C. under N2.

Data set [3] is described as follows: Precipitation of the solubilised sn-2 monoglyceride. Type of data set: physicochemical. The settings on record: acid pH.
A short description of data set [4]: Tolerability of gavage feeding. It is filed as in vivo, SJL mice. The settings on record: higher doses (of 50, 125 and 250 μl), seven days.
In data set [5] the test system is TNF-α. As to conditions: cited from earlier work.
For data set [6], the system named is CREAE. The data set can be described thus: CREAE feeding study. It is filed as in vivo. From the text:
γ-Linolenic acid (18:3 n-6, or GLA) is known to be rapidly converted to longer-chain omega-6 polyunsaturated fatty acids dihomo-γ-linolenic acid and arachidonic acid in vivo (Phylactos et al 1994, Harbige et al 1995, 2000). Therefore to determine how to increase the level of membrane long chain omega-6 fatty acids in MS the inventors have reviewed their results obtained with several GLA-containing oils:-both fungal (from Mucor javanicus) and plant (Borago officianalis), Evening primrose Oenothera spp. or Blackcurrant Ribes spp) as well as a synthetic tri-GLA oil as GLA delivery systems in an in vivo experimental animal model of MS known as chronic relapsing experimental autoimmune encephalomyelitis (CREAE). […] Importantly blackcurrant seed oil has a low sn-2 GLA with most of the GLA in the sn-1 and sn-3 positions (Lawson and Hughes 1988). […] This would also be consistent with the sn-2 GLA being important i.e. the outer pair sn-1 and sn-3 GLA being enzymatically removed in vivo and probably undergoing oxidation leaving the sn-2 GLA only. This selective hydrolysis arises from the known ability of specific lipases to remove the sn-1 and sn-3 fatty acids from triacylgycerol molecules but an apparent protection of the sn-2 position in vivo (Lawson and Hughes 1988, Kyle 1990).

Consider `CCCCC/C=C\C/C=C\C/C=C\CCCCC(=O)OC(CO)CO` [Example 1b, glycerol 2-octa-6Z,9Z,12Z-trienoate], for which the “Change % of TGF-β1 production versus control” value is 80% in data set [1] (Con A 0 μg/ml), 79% in data set [1] (Con A 1 μg/ml) and 42% in data set [1] (Con A 25 μg/ml). Further, the “TGF-β1 production from spleen PBMCs” value in data set [1] (stimulated, Con A 1 μg/ml) turned out to be 409 pg/mL; in data set [1] (stimulated, Con A 25 μg/ml), 480 pg/mL; in data set [1] (unstimulated, Con A 0 μg/ml), 377 pg/mL. The Deterioration on storage entry in data set [2] (freezer at −20° C. under N2, 21 days) is listed as “Little if any deterioration”; in data set [2] (yellow oil, −20° C. under nitrogen, several weeks at least), “without deterioration”. For the same compound, the “Rearrangement to the 1-γ-Linolenoyl glycerol isomer” value in data set [2] (when heated or treated with acids or bases) is given as “can undergo rearrangement”. For the same compound, the Precipitation result in data set [3] is recorded as “tendency to precipitate”. In addition, in data set [4], the Regurgitation after gavage entry is given as “prone to regurgitation”. In addition, the “Activity in reducing TNF-α” value in data set [5] was “inactive”.

With `CCCCC/C=C\C/C=C\C/C=C\CCCCC(=O)OCC(COC(=O)CCCC/C=C\C/C=C\C/C=C\CCCCC)OC(=O)CCCC/C=C\C/C=C\C/C=C\CCCCC` [TG-GLA], the “Protective effects in CREAE” value in data set [6] is recorded as “protective effects similar to that of the borage oil”.
